The data set has as its system CCRIS mutagenicity, Ames/micronucleus/aberration tests. Put plainly: CCRIS mutagenicity studies.
Setting [1] is: Test System: AMES SALMONELLA TYPHIMURIUM, Strain/Indicator: TA98, Metabolic Activation: HAMSTER, LIVER, S-9, AROCLOR 1254 (10%), Method: PREINCUBATION
The mark [2] stands for this setting: Test System: AMES SALMONELLA TYPHIMURIUM, Strain/Indicator: TA98, Metabolic Activation: NONE, Method: PREINCUBATION
The mark [3] stands for this setting: Test System: AMES SALMONELLA TYPHIMURIUM, Strain/Indicator: TA98, Metabolic Activation: RAT, LIVER, S-9, AROCLOR 1254 (10%), Method: PREINCUBATION
Setting [4] is: Test System: AMES SALMONELLA TYPHIMURIUM, Strain/Indicator: TA100, Metabolic Activation: HAMSTER, LIVER, S-9, AROCLOR 1254 (10%), Method: PREINCUBATION
[5] abbreviates: Test System: AMES SALMONELLA TYPHIMURIUM, Strain/Indicator: TA100, Metabolic Activation: NONE, Method: PREINCUBATION
[6] abbreviates: Test System: AMES SALMONELLA TYPHIMURIUM, Strain/Indicator: TA100, Metabolic Activation: RAT, LIVER, S-9, AROCLOR 1254 (10%), Method: PREINCUBATION

Active and inactive are the calls of the source. How the calls were made is not given here.

For `CC(C)(C)c1cc(O)ccc1O`, the mutagenic call is “inactive; negative” (Test System: AMES SALMONELLA TYPHIMURIUM, Strain/Indicator: TA97, Metabolic Activation: HAMSTER, LIVER, S-9, AROCLOR 1254 (10%), Method: PREINCUBATION); “inactive; negative” (Test System: AMES SALMONELLA TYPHIMURIUM, Strain/Indicator: TA97, Metabolic Activation: HAMSTER, LIVER, S-9, AROCLOR 1254 (30%), Method: PREINCUBATION); “inactive; negative” (Test System: AMES SALMONELLA TYPHIMURIUM, Strain/Indicator: TA97, Metabolic Activation: NONE, Method: PREINCUBATION); “inactive; negative” (Test System: AMES SALMONELLA TYPHIMURIUM, Strain/Indicator: TA97, Metabolic Activation: NONE, Method: STANDARD PLATE); “inactive; negative” (Test System: AMES SALMONELLA TYPHIMURIUM, Strain/Indicator: TA97, Metabolic Activation: RAT, LIVER, S-9, AROCLOR 1254 (10%), Method: PREINCUBATION); “inactive; negative” (Test System: AMES SALMONELLA TYPHIMURIUM, Strain/Indicator: TA97, Metabolic Activation: RAT, LIVER, S-9, AROCLOR 1254 (30%), Method: PREINCUBATION). In addition, the mutagenic call was “inactive; negative” (Test System: AMES SALMONELLA TYPHIMURIUM, Strain/Indicator: TA97, Metabolic Activation: RAT, LIVER, S-9, AROCLOR, Method: STANDARD PLATE); “inactive; negative” (Test System: AMES SALMONELLA TYPHIMURIUM, Strain/Indicator: TA97, Metabolic Activation: RAT, LIVER, S-9, PCB, Method: PREINCUBATION); “inactive; negative” under setting [1]; “inactive; negative” (Test System: AMES SALMONELLA TYPHIMURIUM, Strain/Indicator: TA98, Metabolic Activation: HAMSTER, LIVER, S-9, AROCLOR 1254 (30%), Method: PREINCUBATION); “inactive; negative” under setting [2]; “inactive; negative” under setting [3]. In addition, the mutagenic call is “inactive; negative” (Test System: AMES SALMONELLA TYPHIMURIUM, Strain/Indicator: TA98, Metabolic Activation: RAT, LIVER, S-9, AROCLOR 1254 (30%), Method: PREINCUBATION); “inactive; negative” (Test System: AMES SALMONELLA TYPHIMURIUM, Strain/Indicator: TA98, Metabolic Activation: RAT, LIVER, S-9, PCB, Method: PREINCUBATION); “inactive; negative” under setting [4]; “inactive; negative” (Test System: AMES SALMONELLA TYPHIMURIUM, Strain/Indicator: TA100, Metabolic Activation: HAMSTER, LIVER, S-9, AROCLOR 1254 (30%), Method: PREINCUBATION); “inactive; negative” under setting [5]; “inactive; negative” (Test System: AMES SALMONELLA TYPHIMURIUM, Strain/Indicator: TA100, Metabolic Activation: NONE, Method: STANDARD PLATE). In addition, the mutagenic call was “inactive; negative” under setting [6]; “inactive; negative” (Test System: AMES SALMONELLA TYPHIMURIUM, Strain/Indicator: TA100, Metabolic Activation: RAT, LIVER, S-9, AROCLOR 1254 (30%), Method: PREINCUBATION); “inactive; negative” (Test System: AMES SALMONELLA TYPHIMURIUM, Strain/Indicator: TA100, Metabolic Activation: RAT, LIVER, S-9, AROCLOR, Method: STANDARD PLATE); “inactive; negative” (Test System: AMES SALMONELLA TYPHIMURIUM, Strain/Indicator: TA100, Metabolic Activation: RAT, LIVER, S-9, PCB, Method: PREINCUBATION); “inactive; negative” (Test System: AMES SALMONELLA TYPHIMURIUM, Strain/Indicator: TA102, Metabolic Activation: HAMSTER, LIVER, S-9, AROCLOR 1254 (10%), Method: PREINCUBATION); “inactive; negative” (Test System: AMES SALMONELLA TYPHIMURIUM, Strain/Indicator: TA102, Metabolic Activation: HAMSTER, LIVER, S-9, AROCLOR 1254 (30%), Method: PREINCUBATION). Moreover, the mutagenic call (Test System: AMES SALMONELLA TYPHIMURIUM, Strain/Indicator: TA102, Metabolic Activation: NONE, Method: PREINCUBATION) is “inactive; negative”; the mutagenic call (Test System: AMES SALMONELLA TYPHIMURIUM, Strain/Indicator: TA102, Metabolic Activation: NONE, Method: STANDARD PLATE) was “inactive; negative”; the mutagenic call (Test System: AMES SALMONELLA TYPHIMURIUM, Strain/Indicator: TA102, Metabolic Activation: RAT, LIVER, S-9, AROCLOR 1254 (10%), Method: PREINCUBATION) was “inactive; negative”; the mutagenic call (Test System: AMES SALMONELLA TYPHIMURIUM, Strain/Indicator: TA102, Metabolic Activation: RAT, LIVER, S-9, AROCLOR 1254 (30%), Method: PREINCUBATION) was “inactive; negative”; the mutagenic call (Test System: AMES SALMONELLA TYPHIMURIUM, Strain/Indicator: TA102, Metabolic Activation: RAT, LIVER, S-9, AROCLOR, Method: STANDARD PLATE) was “inactive; negative”; the mutagenic call (Test System: AMES SALMONELLA TYPHIMURIUM, Strain/Indicator: TA102, Metabolic Activation: RAT, LIVER, S-9, PCB, Method: PREINCUBATION) was “inactive; negative”. Besides, the mutagenic call is, setting by setting: (Test System: AMES SALMONELLA TYPHIMURIUM, Strain/Indicator: TA104, Metabolic Activation: NONE, Method: PREINCUBATION) “inactive; negative”; (Test System: AMES SALMONELLA TYPHIMURIUM, Strain/Indicator: TA104, Metabolic Activation: NONE, Method: STANDARD PLATE) “inactive; negative”; (Test System: AMES SALMONELLA TYPHIMURIUM, Strain/Indicator: TA104, Metabolic Activation: RAT, LIVER, S-9, AROCLOR, Method: PREINCUBATION) “inactive; negative”; (Test System: AMES SALMONELLA TYPHIMURIUM, Strain/Indicator: TA104, Metabolic Activation: RAT, LIVER, S-9, AROCLOR, Method: STANDARD PLATE) “inactive; negative”.
For `CCCCCNCCCCC`, the mutagenic call reads like this: under setting [1], “inactive; negative”; under setting [2], “inactive; negative”; under setting [3], “inactive; negative”; under setting [4], “inactive; negative”; under setting [5], “inactive; negative”; under setting [6], “inactive; negative”. The mutagenic call is, setting by setting: (Test System: AMES SALMONELLA TYPHIMURIUM, Strain/Indicator: TA1535, Metabolic Activation: HAMSTER, LIVER, S-9, AROCLOR 1254 (10%), Method: PREINCUBATION) “inactive; negative”; (Test System: AMES SALMONELLA TYPHIMURIUM, Strain/Indicator: TA1535, Metabolic Activation: NONE, Method: PREINCUBATION) “inactive; negative”; (Test System: AMES SALMONELLA TYPHIMURIUM, Strain/Indicator: TA1535, Metabolic Activation: RAT, LIVER, S-9, AROCLOR 1254 (10%), Method: PREINCUBATION) “inactive; negative”; (Test System: AMES SALMONELLA TYPHIMURIUM, Strain/Indicator: TA1537, Metabolic Activation: HAMSTER, LIVER, S-9, AROCLOR 1254 (10%), Method: PREINCUBATION) “inactive; negative”; (Test System: AMES SALMONELLA TYPHIMURIUM, Strain/Indicator: TA1537, Metabolic Activation: NONE, Method: PREINCUBATION) “inactive; negative”; (Test System: AMES SALMONELLA TYPHIMURIUM, Strain/Indicator: TA1537, Metabolic Activation: RAT, LIVER, S-9, AROCLOR 1254 (10%), Method: PREINCUBATION) “inactive; negative”.
As for `O=Cc1cn([C@@H]2O[C@H](CO)[C@@H](O)[C@H]2O)c(=O)[nH]c1=O`, the mutagenic call (Test System: CHINESE HAMSTER V-79, Strain/Indicator: V-79 (HPRT)/6-THIOGUANINE, Metabolic Activation: NONE, Method: STANDARD PLATE) was “inactive; negative”.
With `[O-][n+]1c2ccc3ccccc3c2cc2c3ccccc3ccc21`, the mutagenic call (Test System: AMES SALMONELLA TYPHIMURIUM, Strain/Indicator: TA100, Metabolic Activation: GUINEA PIG, LIVER, S-9, 3-METHYLCHOLANTHRENE, Method: STANDARD PLATE) was “inactive; negative” and the mutagenic call (Test System: CHINESE HAMSTER V-79, Strain/Indicator: V-79/6-THIOGUANINE, Metabolic Activation: GUINEA PIG, LIVER, S-9, 3-METHYLCHOLANTHRENE) was “active; positive”.
On to `O=C1C=Cc2ccc3c(ccc4ccccc43)c2C1=O`, for which the mutagenic call is “inactive; negative” (Test System: AMES SALMONELLA TYPHIMURIUM, Strain/Indicator: TA98, Metabolic Activation: NONE, Method: STANDARD PLATE) and “active; positive” (Test System: AMES SALMONELLA TYPHIMURIUM, Strain/Indicator: TA100, Metabolic Activation: RAT, LIVER, S-9, AROCLOR 1254, Method: STANDARD PLATE).

For the origin of these results see PubChem BioAssay AID1259407 (Chemical Carcinogenesis Research Information System (CCRIS), 2018).
